The values below come from patent US20230100838A1 (Revolution Medicines, Inc., priority 2019, published 2023).

Common to all, as to type: binding
The target in test [1] is T1, GDP-loaded K-Ras (1-169) G12D, C51S, C80L, C118S (Homo sapiens, UniProt P01116, C118S/C51S/C80L/G12D).
T1 construct: GDP-loaded K-Ras (1-169) G12D, C51S, C80L, C118S
Kind of test: K-Ras G12D(GDP) cross-linking assay (conjugate formation, TOF mass spectrometry). The settings on record: Table 5; percent covalently modified K-Ras by MS; room temperature; typical compound conc. 2, 10, 25 μM, endpoints 1 and 24 h. In short, it runs like this: (§1)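 5 μM protein (final, from 50 μM) in HEPES/NaCl/MgCl2 buffer pH 7.4 with compound typically at 2, 10 and 25 μM, room temperature, 1 and 24 h endpoints; formic acid quench. Intact-protein LC–TOF MS; percent modification is covalent adduct peak height over total K-Ras peak height.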

The target in the next test is K-Ras G12S (Homo sapiens, UniProt P01116, G12S). The test can be described thus: K-Ras G12S cross-linking assay (comparable procedure, conjugate formation, TOF mass spectrometry). The settings on record: Table 5, percent covalently modified K-Ras by MS. In short, it runs like this: as §1
Test [2] addresses T2, GDP-loaded K-Ras (1-169) C51S, C80L, C118S (Homo sapiens, UniProt P01116, C118S/C51S/C80L).
T2 construct: GDP-loaded K-Ras (1-169) C51S, C80L, C118S
Kind of test: K-Ras WT (GDP) cross-linking assay (conjugate formation, TOF mass spectrometry). The settings on record: Table 5; percent covalently modified K-Ras by MS; room temperature; typical compound conc. 2, 10, 25 μM, endpoints 1 and 24 h. In short, it runs like this: as §1

Turning to `Cc1cccc2cccc(N3CCc4c(nc(OC[C@@H]5CCCN5C)nc4N4CCN(C(=O)[C@@H]5CN5)[C@@H](CC#N)C4)C3)c12` [Example 64, 2-((S)-1-((S)-aziridine-2-carbonyl)-4-(7-(8-methylnaphthalen-1-yl)-2-(((S)-1-methylpyrrolidin-2-yl)methoxy)-5,6,7,8-tetrahydropyrido[3,4-d]pyrimidin-4-yl)piperazin-2-yl)acetonitrile], the “G12D x-linking (%)” value in test [1] was “+ (0 < x ≤ 20)”. The “G12S x-linking (%)” value on K-Ras G12S is recorded as “+ (0 < x ≤ 10)”. Besides, the “WT x-linking (%)” value in test [2] is “+ (0 < x ≤ 20)”.

For the molecule `Cc1ccnc(C(C)C)c1-n1c(=O)nc(N2CCN(C(=O)[C@H]3CN3)C[C@@H]2C)c2cc(F)c(-c3c(O)cccc3F)nc21` [Example 65, 4-((S)-4-((R)-aziridine-2-carbonyl)-2-methylpiperazin-1-yl)-6-fluoro-7-(2-fluoro-6-hydroxyphenyl)-1-(2-isopropyl-4-methylpyridin-3-yl)pyrido[2,3-d]pyrimidin-2(1H)-one], the “G12D x-linking (%)” value in test [1] is listed as “+ (0 < x ≤ 20)”. At K-Ras G12S, the “G12S x-linking (%)” value is “+ (0 < x ≤ 10)”. In addition, in test [2], the “WT x-linking (%)” value is on record as “+ (0 < x ≤ 20)”.

With `Cc1ccnc(C(C)C)c1-n1c(=O)nc(N2CCN(C(=O)[C@@H]3CN3)C[C@@H]2C)c2cc(F)c(-c3c(O)cccc3F)nc21` [Example 66, 4-((S)-4-((S)-aziridine-2-carbonyl)-2-methylpiperazin-1-yl)-6-fluoro-7-(2-fluoro-6-hydroxyphenyl)-1-(2-isopropyl-4-methylpyridin-3-yl)pyrido[2,3-d]pyrimidin-2(1H)-one], the “G12D x-linking (%)” value in test [1] was “+ (0 < x ≤ 20)”. At K-Ras G12S, the “G12S x-linking (%)” value was “+ (0 < x ≤ 10)”. Also, the “WT x-linking (%)” value in test [2] was “+ (0 < x ≤ 20)”.

As to `Cc1ccnc(C(C)C)c1-n1c(=O)nc(N2CCC(CN=C=NCc3ccccc3)CC2)c2cc(F)c(-c3ccccc3F)nc21` [Example 69, 4-(4-((((benzylimino)methylene)amino)methyl)piperidin-1-yl)-6-fluoro-7-(2-fluorophenyl)-1-(2-isopropyl-4-methylpyridin-3-yl)pyrido[2,3-d]pyrimidin-2(1H)-one], the “G12D x-linking (%)” value in test [1] is reported as “+ (0 < x ≤ 20)”. At K-Ras G12S, the “G12S x-linking (%)” value is “+ (0 < x ≤ 10)”. For the same molecule, the “WT x-linking (%)” value in test [2] is on record as “+ (0 < x ≤ 20)”.

For `COCCN=C=NCC1CCN(c2nc(=O)n(-c3c(C)ccnc3C(C)C)c3nc(-c4ccccc4F)c(F)cc23)CC1` [Example 70, 6-fluoro-7-(2-fluorophenyl)-1-(2-isopropyl-4-methylpyridin-3-yl)-4-(4-(((((2-methoxyethyl)imino)methylene)amino)methyl)piperidin-1-yl)pyrido[2,3-d]pyrimidin-2(1H)-one], the “G12D x-linking (%)” value in test [1] is given as “++ (20 < x ≤ 40)”. On K-Ras G12S, the “G12S x-linking (%)” value is recorded as “++ (10 < x ≤ 100)”. The “WT x-linking (%)” value in test [2] is recorded as “++ (20 < x ≤ 100)”.

`CCCN=C=NCC1CCN(c2nc(=O)n(-c3c(C)ccnc3C(C)C)c3nc(-c4ccccc4F)c(F)cc23)CC1` [Example 71, 6-fluoro-7-(2-fluorophenyl)-1-(2-isopropyl-4-methylpyridin-3-yl)-4-(4-((((propylimino)methylene)amino)methyl)piperidin-1-yl)pyrido[2,3-d]pyrimidin-2(1H)-one]: in test [1], the “G12D x-linking (%)” value is “++ (20 < x ≤ 40)”. For the same molecule, the “G12S x-linking (%)” value at K-Ras G12S is “++ (10 < x ≤ 100)”. In addition, the “WT x-linking (%)” value in test [2] is on record as “++ (20 < x ≤ 100)”.

For `COCCN=C=N[C@H]1C[C@H](Nc2nc(OC[C@@H]3CCCN3C)nc3c2CCN(c2cccc4cccc(C)c24)C3)C1` [Example 72, N-((1r,3S)-3-((((2-methoxyethyl)imino)methylene)amino)cyclobutyl)-7-(8-methylnaphthalen-1-yl)-2-(((S)-1-methylpyrrolidin-2-yl)methoxy)-5,6,7,8-tetrahydropyrido[3,4-d]pyrimidin-4-amine], the “G12D x-linking (%)” value in test [1] is listed as “+++ (40 < x ≤ 100)”. Also, the “G12S x-linking (%)” value at K-Ras G12S was “++ (10 < x ≤ 100)”. The “WT x-linking (%)” value in test [2] was “++ (20 < x ≤ 100)”.

Regarding `COCCN=C=N[C@@H]1CCN(c2nc(OC[C@@H]3CCCN3C)nc3c2CCN(c2cccc4cccc(C)c24)C3)C1` [Example 73, N-(2-methoxyethyl)-N—((R)-1-(7-(8-methylnaphthalen-1-yl)-2-(((S)-1-methylpyrrolidin-2-yl)methoxy)-5,6,7,8-tetrahydropyrido[3,4-d]pyrimidin-4-yl)pyrrolidin-3-yl)methanediimine], the “G12D x-linking (%)” value in test [1] is “+++ (40 < x ≤ 100)”. The “G12S x-linking (%)” value at K-Ras G12S is recorded as “++ (10 < x ≤ 100)”. Besides, the “WT x-linking (%)” value in test [2] is recorded as “++ (20 < x ≤ 100)”.

With `COCCN=C=N[C@H]1CCN(c2nc(OC[C@@H]3CCCN3C)nc3c2CCN(c2cccc4cccc(C)c24)C3)C1` [Example 74, N-(2-methoxyethyl)-N—((S)-1-(7-(8-methylnaphthalen-1-yl)-2-(((S)-1-methylpyrrolidin-2-yl)methoxy)-5,6,7,8-tetrahydropyrido[3,4-d]pyrimidin-4-yl)pyrrolidin-3-yl)methanediimine], the “G12D x-linking (%)” value in test [1] is on record as “+++ (40 < x ≤ 100)”. In addition, the “G12S x-linking (%)” value at K-Ras G12S is given as “++ (10 < x ≤ 100)”. The “WT x-linking (%)” value in test [2] is given as “++ (20 < x ≤ 100)”.

On to `COCCN=C=N[C@@H]1CCN(c2nc(OC[C@@H]3CCCN3C)nc3c2CCN(c2cccc4cccc(C)c24)C3)C[C@@H]1CC#N` [Example 75, 2-((3S,4R)-4-((((2-methoxyethyl)imino)methylene)amino)-1-(7-(8-methylnaphthalen-1-yl)-2-(((S)-1-methylpyrrolidin-2-yl)methoxy)-5,6,7,8-tetrahydropyrido[3,4-d]pyrimidin-4-yl)piperidin-3-yl)acetonitrile], for which the “G12D x-linking (%)” value in test [1] is reported as “+++ (40 < x ≤ 100)”. Moreover, the “G12S x-linking (%)” value on K-Ras G12S is “++ (10 < x ≤ 100)”. In addition, in test [2], the “WT x-linking (%)” value is recorded as “+ (0 < x ≤ 20)”.

On to `COCCN=C=NCC1CCN(c2nc(OC[C@@H]3CCCN3C)nc3c2CCN(c2cccc4cccc(C)c24)C3)CC1` [Example 77, N-(2-methoxyethyl)-N-((1-(7-(8-methylnaphthalen-1-yl)-2-(((S)-1-methylpyrrolidin-2-yl)methoxy)-5,6,7,8-tetrahydropyrido[3,4-d]pyrimidin-4-yl)piperidin-4-yl)methyl)methanediimine], for which the “G12D x-linking (%)” value in test [1] was “+++ (40 < x ≤ 100)”. Also, the “G12S x-linking (%)” value on K-Ras G12S is on record as “++ (10 < x ≤ 100)”. In addition, the “WT x-linking (%)” value in test [2] is “++ (20 < x ≤ 100)”.

On to `COCCN=C=N[C@H]1CC[C@H](N(C)c2nc(OC[C@@H]3CCCN3C)nc3c2CCN(c2cccc4cccc(C)c24)C3)CC1` [Example 78, N-((1r,4S)-4-((((2-methoxyethyl)imino)methylene)amino)cyclohexyl)-N-methyl-7-(8-methylnaphthalen-1-yl)-2-(((S)-1-methylpyrrolidin-2-yl)methoxy)-5,6,7,8-tetrahydropyrido[3,4-d]pyrimidin-4-amine], for which the “G12D x-linking (%)” value in test [1] was “++ (20 < x ≤ 40)”. Also, the “G12S x-linking (%)” value at K-Ras G12S is “+ (0 < x ≤ 10)”. Further, the “WT x-linking (%)” value in test [2] is “+ (0 < x ≤ 20)”.

For the molecule `COCCN=C=N[C@H]1CC[C@@H](N(C)c2nc(OC[C@@H]3CCCN3C)nc3c2CCN(c2cccc4cccc(C)c24)C3)CC1` [Example 79, N-((1s,4R)-4-((((2-methoxyethyl)imino)methylene)amino)cyclohexyl)-N-methyl-7-(8-methylnaphthalen-1-yl)-2-(((S)-1-methylpyrrolidin-2-yl)methoxy)-5,6,7,8-tetrahydropyrido[3,4-d]pyrimidin-4-amine], in test [1], the “G12D x-linking (%)” value was “+++ (40 < x ≤ 100)”. The “G12S x-linking (%)” value at K-Ras G12S is “++ (10 < x ≤ 100)”. For the same molecule, in test [2], the “WT x-linking (%)” value is on record as “++ (20 < x ≤ 100)”.

As to `COCC1(N=C=NC2CCN(c3nc(OC[C@@H]4CCCN4C)nc4c3CCN(c3cccc5cccc(C)c35)C4)CC2)CC1` [Example 80, N-(1-(methoxymethyl)cyclopropyl)-N-(1-(7-(8-methylnaphthalen-1-yl)-2-(((S)-1-methylpyrrolidin-2-yl)methoxy)-5,6,7,8-tetrahydropyrido[3,4-d]pyrimidin-4-yl)piperidin-4-yl)methanediimine], in test [1], the “G12D x-linking (%)” value is recorded as “++ (20 < x ≤ 40)”. The “G12S x-linking (%)” value on K-Ras G12S is given as “++ (10 < x ≤ 100)”. For the same molecule, the “WT x-linking (%)” value in test [2] was “+ (0 < x ≤ 20)”.

Regarding `COc1ccccc1CN=C=NC1CCN(c2nc(OC[C@@H]3CCCN3C)nc3c2CCN(c2cccc4cccc(C)c24)C3)CC1` [Example 81, N-(2-methoxybenzyl)-N-(1-(7-(8-methylnaphthalen-1-yl)-2-(((S)-1-methylpyrrolidin-2-yl)methoxy)-5,6,7,8-tetrahydropyrido[3,4-d]pyrimidin-4-yl)piperidin-4-yl)methanediimine], the “G12D x-linking (%)” value in test [1] was “+ (0 < x ≤ 20)”. Further, the “G12S x-linking (%)” value on K-Ras G12S was “+ (0 < x ≤ 10)”. Besides, in test [2], the “WT x-linking (%)” value was “+ (0 < x ≤ 20)”.

`COc1ccc(CN=C=NC2CCN(c3nc(OC[C@@H]4CCCN4C)nc4c3CCN(c3cccc5cccc(C)c35)C4)CC2)c(OC)c1` [Example 82, N-(2,4-dimethoxybenzyl)-N-(1-(7-(8-methylnaphthalen-1-yl)-2-(((S)-1-methylpyrrolidin-2-yl)methoxy)-5,6,7,8-tetrahydropyrido[3,4-d]pyrimidin-4-yl)piperidin-4-yl)methanediimine]: in test [1], the “G12D x-linking (%)” value is “+ (0 < x ≤ 20)”. Further, the “G12S x-linking (%)” value at K-Ras G12S is “+ (0 < x ≤ 10)”. Besides, the “WT x-linking (%)” value in test [2] is “+ (0 < x ≤ 20)”.
